# From PubChem BioAssay (NCI)
#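 Values below derive from 48-hour exposures of cells grown in 96-well plates, with endpoints linearly interpolated between the two concentrations bracketing the appropriate inhibition level. The concentration for 50% growth inhibition is given as GI50. At the TGI there is no net growth.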
# Tests used:
# Assay in all cases: NCI tumour cell line growth inhibition, 48 h
# SK-OV-3 ovarian = system: SK-OV-3 ovarian
# BT-549 breast = system: BT-549 breast
# UACC-62 melanoma = system: UACC-62 melanoma
# EKVX NSCLC = system: EKVX NSCLC
# NCI-H23 lung = system: NCI-H23 lung
# MOLT-4 leukemia = system: MOLT-4 leukemia
# HCT-116 colon = system: HCT-116 colon
# SW-620 colon = system: SW-620 colon
# ACHN renal = system: ACHN renal
# TK-10 renal = system: TK-10 renal
# SR leukemia = system: SR leukemia
# MDA-MB-435 = system: MDA-MB-435
# LOX IMVI melanoma = system: LOX IMVI melanoma
# M14 melanoma = system: M14 melanoma
# HOP-62 NSCLC = system: HOP-62 NSCLC
# NCI-H226 lung = system: NCI-H226 lung
# NCI-H460 lung = system: NCI-H460 lung
# SK-MEL-2 melanoma = system: SK-MEL-2 melanoma
# HOP-92 NSCLC = system: HOP-92 NSCLC
# KM12 colon = system: KM12 colon
# 786-0 renal = system: 786-0 renal
# U251 CNS = system: U251 CNS
# IGROV1 ovarian = system: IGROV1 ovarian
# K-562 leukemia = system: K-562 leukemia
# SK-MEL-5 melanoma = system: SK-MEL-5 melanoma
# SF-268 CNS = system: SF-268 CNS
# SNB-75 CNS = system: SNB-75 CNS
# DU-145 prostate = system: DU-145 prostate
# UO-31 renal = system: UO-31 renal
# HCC-2998 colon = system: HCC-2998 colon
# HT29 colon = system: HT29 colon
# PC-3 prostate = system: PC-3 prostate
# OVCAR-5 ovarian = system: OVCAR-5 ovarian
# A549 NSCLC = system: A549 NSCLC
# RXF 393 renal = system: RXF 393 renal
# UACC-257 melanoma = system: UACC-257 melanoma
# MDA-MB-231 breast = system: MDA-MB-231 breast
# RPMI-8226 leukemia = system: RPMI-8226 leukemia
# COLO 205 colon = system: COLO 205 colon
# A498 renal = system: A498 renal
# HCT-15 colon = system: HCT-15 colon
# OVCAR-8 ovarian = system: OVCAR-8 ovarian
# CCRF-CEM leukemia = system: CCRF-CEM leukemia
# HS 578T breast = system: HS 578T breast
# CAKI-1 renal = system: CAKI-1 renal
# SF-539 CNS = system: SF-539 CNS
# OVCAR-4 ovarian = system: OVCAR-4 ovarian
# MALME-3M melanoma = system: MALME-3M melanoma
# T-47D breast = system: T-47D breast
# NCI-H522 lung = system: NCI-H522 lung
# MCF7 breast = system: MCF7 breast
# SN12C renal = system: SN12C renal
# MDA-MB-468 breast = system: MDA-MB-468 breast
# SK-MEL-28 melanoma = system: SK-MEL-28 melanoma
# SNB-19 CNS = system: SNB-19 CNS
# SF-295 CNS = system: SF-295 CNS
# HL-60(TB) leukemia = system: HL-60(TB) leukemia
# OVCAR-3 ovarian = system: OVCAR-3 ovarian
smiles,measurement,setting,value
Cc1ccc(-c2cc(-c3cc4ccccc4nc3Cl)[nH]c(=O)n2)cc1,GI50,SK-OV-3 ovarian,29.2 µM
same,TGI,SK-OV-3 ovarian,> 100 µM
same,GI50,BT-549 breast,2730 nM
same,TGI,BT-549 breast,7.87 µM
same,GI50,UACC-62 melanoma,14 µM
same,TGI,UACC-62 melanoma,30 µM
same,GI50,EKVX NSCLC,17.6 µM
same,TGI,EKVX NSCLC,54.8 µM
same,GI50,NCI-H23 lung,12.2 µM
same,TGI,NCI-H23 lung,30.2 µM
same,GI50,MOLT-4 leukemia,2660 nM
same,TGI,MOLT-4 leukemia,12.4 µM
same,GI50,HCT-116 colon,3.31 µM
same,TGI,HCT-116 colon,14 µM
same,GI50,SW-620 colon,13.8 µM
same,TGI,SW-620 colon,34.4 µM
same,GI50,ACHN renal,16.3 µM
same,TGI,ACHN renal,32.9 µM
same,GI50,TK-10 renal,15.1 µM
same,TGI,TK-10 renal,29.7 µM
same,GI50,SR leukemia,1200 nM
same,TGI,SR leukemia,4.33 µM
same,GI50,MDA-MB-435,14.9 µM
same,TGI,MDA-MB-435,31.5 µM
same,GI50,LOX IMVI melanoma,8.43 µM
same,TGI,LOX IMVI melanoma,23.9 µM
same,GI50,M14 melanoma,10.7 µM
same,TGI,M14 melanoma,30.1 µM
same,GI50,HOP-62 NSCLC,14.2 µM
same,TGI,HOP-62 NSCLC,31.5 µM
same,GI50,NCI-H226 lung,13.1 µM
same,TGI,NCI-H226 lung,37.2 µM
same,GI50,NCI-H460 lung,10 µM
same,TGI,NCI-H460 lung,29.3 µM
same,GI50,SK-MEL-2 melanoma,14.4 µM
same,TGI,SK-MEL-2 melanoma,30.6 µM
same,GI50,HOP-92 NSCLC,2730 nM
same,TGI,HOP-92 NSCLC,14.5 µM
same,GI50,KM12 colon,7.63 µM
same,TGI,KM12 colon,24.8 µM
same,GI50,786-0 renal,4.71 µM
same,TGI,786-0 renal,17.5 µM
same,GI50,U251 CNS,9.95 µM
same,TGI,U251 CNS,28.6 µM
same,GI50,IGROV1 ovarian,16 µM
same,TGI,IGROV1 ovarian,37.2 µM
same,GI50,K-562 leukemia,2610 nM
same,TGI,K-562 leukemia,13.2 µM
same,GI50,SK-MEL-5 melanoma,17.7 µM
same,TGI,SK-MEL-5 melanoma,33.7 µM
same,GI50,SF-268 CNS,13.8 µM
same,TGI,SF-268 CNS,32.3 µM
same,GI50,SNB-75 CNS,11.4 µM
same,TGI,SNB-75 CNS,40.2 µM
same,GI50,DU-145 prostate,13.1 µM
same,TGI,DU-145 prostate,26.9 µM
same,GI50,UO-31 renal,10.4 µM
same,TGI,UO-31 renal,22.2 µM
same,GI50,HCC-2998 colon,15.3 µM
same,TGI,HCC-2998 colon,29.4 µM
same,GI50,HT29 colon,16 µM
same,TGI,HT29 colon,34.6 µM
same,GI50,PC-3 prostate,12 µM
same,TGI,PC-3 prostate,37 µM
same,GI50,OVCAR-5 ovarian,16.9 µM
same,TGI,OVCAR-5 ovarian,32.5 µM
same,GI50,A549 NSCLC,22.1 µM
same,TGI,A549 NSCLC,> 100 µM
same,GI50,RXF 393 renal,14.6 µM
same,TGI,RXF 393 renal,32.6 µM
same,GI50,UACC-257 melanoma,16.7 µM
same,TGI,UACC-257 melanoma,35.7 µM
same,GI50,MDA-MB-231 breast,13.9 µM
same,TGI,MDA-MB-231 breast,32.4 µM
same,GI50,RPMI-8226 leukemia,3.17 µM
same,TGI,RPMI-8226 leukemia,17.8 µM
same,GI50,COLO 205 colon,18 µM
same,TGI,COLO 205 colon,38.8 µM
same,GI50,A498 renal,14.4 µM
same,TGI,A498 renal,30.5 µM
same,GI50,HCT-15 colon,13 µM
same,TGI,HCT-15 colon,45.1 µM
same,GI50,OVCAR-8 ovarian,18.5 µM
same,TGI,OVCAR-8 ovarian,76.8 µM
same,GI50,CCRF-CEM leukemia,3.94 µM
same,TGI,CCRF-CEM leukemia,35.5 µM
same,GI50,HS 578T breast,13 µM
same,TGI,HS 578T breast,83.4 µM
same,GI50,CAKI-1 renal,11.9 µM
same,TGI,CAKI-1 renal,26.5 µM
same,GI50,SF-539 CNS,12.1 µM
same,TGI,SF-539 CNS,24.7 µM
same,GI50,OVCAR-4 ovarian,20.9 µM
same,TGI,OVCAR-4 ovarian,> 100 µM
same,GI50,MALME-3M melanoma,14.8 µM
same,TGI,MALME-3M melanoma,29.1 µM
same,GI50,T-47D breast,16.4 µM
same,TGI,T-47D breast,77.3 µM
same,GI50,NCI-H522 lung,13.9 µM
same,TGI,NCI-H522 lung,27.3 µM
same,GI50,MCF7 breast,6.08 µM
same,TGI,MCF7 breast,22.4 µM
same,GI50,SN12C renal,15.8 µM
same,TGI,SN12C renal,33 µM
same,GI50,MDA-MB-468 breast,12.7 µM
same,TGI,MDA-MB-468 breast,44.3 µM
same,GI50,SK-MEL-28 melanoma,16.2 µM
same,TGI,SK-MEL-28 melanoma,30.2 µM
same,GI50,SNB-19 CNS,11.3 µM
same,TGI,SNB-19 CNS,23.9 µM
same,GI50,SF-295 CNS,16.9 µM
same,TGI,SF-295 CNS,35.1 µM
same,GI50,HL-60(TB) leukemia,1890 nM
same,TGI,HL-60(TB) leukemia,14.6 µM
same,GI50,OVCAR-3 ovarian,10.3 µM
same,TGI,OVCAR-3 ovarian,22.5 µM
